{"source": "patent US20220243211A1", "about": "“PEPTIDE NUCLEIC ACID COMPOSITIONS WITH MODIFIED HOOGSTEEN BINDING SEGMENTS AND METHODS OF USE THEREOF” (Yale University, priority 2019, published 2022)", "key": {"[1]": {"assay": "Zeta potential and hydrodynamic diameter of formulated NPs by dynamic light scattering", "assay_type": "physicochemical", "conditions": "NPs containing PNA/donor DNA, PBS buffer, n = 3; for Z Av Diameter: dynamic light scattering", "description": "Blank NPs containing no PNA and a mismatch donor DNA as a control were prepared as a control. The mismatched donor DNA was purposely added into blank NPs because addition of donor DNA helps to produce a similar surface charge on the control NPs as on the test NPs encapsulated with PNA/donor DNA combinations. […] All NP in the diameters were in the range of 200-350 nm, as measured by dynamic light scattering (Table 1), consistent with previous measurements (McNeer, et al., Nat Commun 6, 6952 (2015), Fields, et al., Adv Healthc Mater 4, 361-366 (2015), Fields, et al., J Control Release 164, 41-48 (2012)). PNA/DNA-loaded NPs were cationic (Fields, et al., Adv Healthc Mater 4, 361-366 (2015), Fields, et al., J Control Release 164, 41-48 (2012)) for PBAE/PLGA/MPG NPs (Table 1)."}, "[2]": {"tested_on": "CFTR function in the nasal epithelium", "assay": "Nasal potential difference (NPD) in CF mice after intranasal NPs", "assay_type": "in vivo, mouse", "conditions": "F508del CF mice, intranasal PBAE/PLGA/MPG NPs with PNA/donor DNA", "description": "FIG. 4 is a dot plot showing functional correction of CFTR with modified NPs in vivo. Mice were treated by intranasal administration with NPs. Nasal potential difference measurements were evaluated before and after NP treatments. The response to a 0Cl+amiloride+forksolin perfusate after NP treatment was compared to the response prior to treatment. Pre- and post-treatment changes in NPD were compared using paired t tests for each mouse. Each mouse is represented with an individual data point; in addition, the mean is shown with a horizontal line, surround by error bars showing the standard error of the mean. In the last panel, nasal potential difference changes in wild type mice are shown for comparison. […]\nTo determine if gamma tcPNAs were more efficient editing agents than classic PNA in vivo, CF mice were treated intranasally with PBAE/PLGA/MPG NPs containing mCF-PNA/DNA or γmCF-PNA-h/DNA on days 1, 3, 6, and 9. Subsequently, CF mice were assessed for CFTR function in the nasal epithelium by measuring the nasal potential difference (NPD), a non-invasive assay used to detect cAMP-stimulated chloride transport in vivo. […] NPD is assessed in all mice prior to treatment with NPs and reassessed after treatment such that alterations in this measure can be used as a surrogate of restored CFTR function."}, "[3]": {"conditions": "mouse, in vivo", "description": "To collect the lungs for histopathology, a midline incision from sternum to diaphragm was performed and, to remove blood from the pulmonary circulation, PBS+heparin was perfused via the right ventricle using a 20 g needle. Lungs were inflated with 0.5% low melt agarose at constant pressure, then removed from the chest and placed in fixative. Paraffin embedded tissues were stained with hemotoxylin and eosin stain for imaging.\nTo investigate whether NPs could effectively deliver the gene editing reagents to the lung TAMRA-conjugated mouse specific PNA (γmCF PNA-h) and mouse donor DNA into PBAE/PLGA/MPG NPs were formulated. After intranasal administration of γmCF PNA-h/DNA NPs into CF mice, the lungs were harvested and PNA uptake was assessed by fluorescence microscopy."}}, "note": "[PNA-N] = peptide nucleic acid monomer (N: the base)"}
{"substance": "H-KKK-JTTTTJJJ-OOO-CCCTTTTCAAGGTGAGTAG-KKK-NH2 [mCF PNA] (NTTTTNNNCCCTTTTCAAGGTGAGTAG; listed as DNA, chemistry not fully specified)", "values": [{"measurement": "Zeta Potential", "setting": "[1]", "result": 46.17, "unit": "mV"}, {"measurement": "Z Av Diameter", "setting": "[1]", "result": 317.8, "unit": "nm"}, {"measurement": "treated mice showing response to cyclic AMP stimulation (cyclic AMP activated Cl− conductance) in NPD", "setting": "[2]", "result": 50, "unit": "%"}]}
{"substance": "H-KKK-JTTTTJJJ-OOO-CCCTTTTCAAGGTGAGTAG-KKK-NH2 [γmCF PNA-h] (NTTTTNNNCCCTTTTCAAGGTGAGTAG; all [PNA-N], the base at N not given here; lysine tripeptides at both ends, OOO linker, some gamma-modified PNA monomers, further chemistry not fully specified) [tail clamp PNA targeting mouse CFTR gene with MPγ monomers in Hoogsteen domain]", "values": [{"measurement": "Zeta Potential", "setting": "[1]", "result": 36.17, "unit": "mV"}, {"measurement": "Z Av Diameter", "setting": "[1]", "result": 349.1, "unit": "nm"}, {"measurement": "histology of nasal epithelia / respiratory tract", "setting": "[3]", "result": "No significant differences in the histology of the nasal epithelia"}, {"measurement": "treated mice showing response to cyclic AMP stimulation (cyclic AMP activated Cl− conductance) in NPD", "setting": "[2]", "result": 79, "unit": "%"}]}
